No end group written: not given here.
Key:
HDAC5 nuclear export [1] = test: PMA-induced GFP-HDAC5 nuclear export in Cos7 cells (fluorescence microscopy); type: cell-based; conditions: for PMA-induced HDAC5 nuclear export: GFP-HDAC5-WT, pretreatment, then PMA for 3 hours
Protocol: (§1) A, B, Cos7 cells were co-transfected with expression vectors encoding GFP-tagged HDAC5 (GFP-HDAC5) and constitutively active protein kinases as indicated, and then exposed to phorbol-12-myristate-13-acetate (PMA, […]) for 3 hours. […] A-F, The cells were fixed and the subcellular localization of GFP-HDAC5 was visualized by fluorescence microscopy.
C, D, Cos7 cells were transfected with GFP-HDAC5-WT or GFP-HDAC5-S280D and then exposed to PMA for 3 hours. GFP-HDAC5-S280D but not GFP-HDAC5-WT was resistant to PMA-induced nuclear export. *, p<0.05 versus without PMA, n=4. E, F, Cos7 cells were transfected with Flag-HDAC5-WT or Flag-HDAC5-S280A mutant, and then pretreated with forskolin followed with the exposure to PMA. Phosphorylation of HDAC5 in cell lysates was analyzed by immunoblotting with phospho-specific HDAC5 antibodies that recognize the HDAC5 phosphorylated at Ser259 (E) and Ser498 (F). G, H, Cos7 cells were transfected with Flag-HDAC5-WT, Flag-HDAC5-S280A or Flag-HDAC5-S280D, and then pretreated with forskolin, followed with the exposure to PMA. Coimmunoprecipitation of Flag-HDAC5 in cell lysates and then immunoblotting with anti-14-3-3 beta and anti-Flag antibodies in immunoprecipitates were performed. 14-3-3 in total cell lysates (5% of the input) was determined by immunoblotting with anti-14-3-3 antibodies. Representative blots are shown, n=3.
The cells were fixed and GFP-HDAC5 localization was analyzed by fluorescence microscopy.
For analysis of GFP-HDAC5 subcellular localization in NRVMs and Cos7 cells, cells were plated in the presence of adenovirus (multiplicity of infection, 50 to 100) on 35 mm dishes containing DMEM plus 10% FBS as previously described (Vega R B, et al. (2004) Protein kinases C and D mediate agonist-dependent cardiac hypertrophy through nuclear export of histone deacetylase 5. Mol Cell Biol 24(19):8374-8385).
(§2) After 24 hour culture, cells were maintained in serum-free DMEM medium for additional 24 hours, and then exposed to various inducers or inhibitors (for 30 minutes) prior to PE or PMA stimulation for indicated times. The cells were washed with PBS and fixed with 3.7% formaldehyde in PBS. Images were captured at a magnification of ×60, using a fluorescence microscope (Olympus BX51) equipped with a digital camera and Spot software system (RT Color Diagnostic Instruments). For analysis of the myocyte marker, sarcomeric α-actinin antibody and DAPI in neonatal cardiomyocyte, immunocytochemistry were performed according to a standard protocol. For subcellular localization of endogenous HDAC5 in cardiomyocyes, we fixed cells and used the detergent Saponin (Sigma, 84510) to make cells permeable, and then performed immunocytochemistry with anti-HDAC5 antibody (Santa Cruz, sc-11419). For subcellular localization of HDAC5, total around 200 cells were counted in each condition. For cardiomyocyte size, total myocyte surface areas were calculated using NIH Image J software, and expressed as the average of 100 randomly selected cells per condition.

HDAC5 nuclear export [2] = test: PE-induced HDAC5 nuclear export in neonatal rat ventricular cardiomyocytes (NRVMs); type: cell-based
Protocol: as §1
(§3) The cells were fixed and GFP-HDAC5 localization was analyzed by fluorescence microscopy. α-actinin was detected by immunofluorescence using an antibody against α-actinin and a fluorescein-conjugated secondary antibody. The nuclei were stained with DAPI.
as §3, with “DAPI. B, PKA expression in cell lysates were determined by Western blot using PKA antibody.” for “DAPI.”
The cells were fixed and endogenous HDAC5 localization was analyzed by fluorescence microscopy. HDAC5 and α-actinin was detected by immunocytochemistry with antibody against HDAC5 and α-actinin.
The cells were fixed and GFP-HDAC5 subcellular localization was analyzed by fluorescence microscopy and stained with an α-actinin antibody and DAPI.
Cos7 cells were grown in Dulbecco's Modified Eagle's Medium (DMEM) supplemented with fetal bovine serum (10%), 1-glutamine and penicillin/streptomycin. Primary cultures of neonatal rat cardiac ventricular myocytes (NRVMs) from 1- to 2-day-old Sprague-Dawley rats (Charles River Laboratories) were prepared. In brief, NRVMs were dispersed from the ventricles by digestion with collagenase type II (Worthington). Cells were cultured in Dulbecco's modified Eagle's medium (DMEM) supplemented with 1,000 mg/L D-glucose, L-glutamine, and 110 mg/L sodium pyruvate (GIBCO), fetal bovine serum (10%), and penicillin/streptomycin at 37° C. in a 5% CO2 humidified atmosphere for 2-3 days. For inducer or inhibitor studies, cells were pretreated with various inducers or inhibitors for 30 min in serum-free medium. Primary cultures of adult rat cardiomyocytes were prepared from 200-250g male Sprague-Dawley rats. Briefly, rats were anesthetized, hearts excised and placed in Krebs buffer and perfused and digested with endotoxin-free collagenase II (Worthington). This protocol typically yielded approximately 4×10^6 cells per heart, with ˜85% surviving, rod-shaped Ca2+-tolerant cells. Myocytes were allowed to attach to 20 μg/ml laminin coated plates in Modified Eagle Medium (MEM) containing 2.5% FBS, 25 mmol/L HEPES, 5 mmol/L taurine, 2 mmol/L carnitine, 2 mmol/L creatinine, 100 IU/ml penicillin, and 100 μg/ml streptomycin for 2 hrs before replacing with serum-free MEM containing 25 mmol/L HEPES, 5 mmol/L taurine, 2 mmol/L carnitine, 2 mmol/L creatinine, 100 IU/ml penicillin, and 100 μg/ml streptomycin.
Adenoviruses encoding Flag-tagged HDAC5 wild-type (WT), GFP-tagged HDAC5-WT, and YFP-tagged HDAC7-WT were generated as described previously (Ha C H, et al. (2008) Protein Kinase D-dependent Phosphorylation and Nuclear Export of Histone Deacetylase 5 Mediates Vascular Endothelial Growth Factor-induced Gene Expression and Angiogenesis. J Biol Chem 283(21):14590-14599; Ha C H et al. (2008) VEGF stimulates HDAC7 phosphorylation and cytoplasmic accumulation modulating matrix metalloproteinase expression and angiogenesis. Arterioscler Thromb Vasc Biol 28(10):1782-1788). Adenovirus expressing GFP-tagged HDAC5-S280A mutant, GFP-tagged HDAC5-S280D mutant and Flag-tagged HDAC5-S280A mutant were generated by using ViraPower Adenoviral Expression System (Invitrogen) according to the manufacturer's protocol. Adenovirus containing β-galactosidase (LacZ) or GFP was used as a control. […]

NRVMs = test: Cardiomyocyte hypertrophy (cell size, α-actinin immunostaining) in NRVMs; type: cell-based, rat
Text: A-H, Cardiomyocyte size was detected by immunostaining with anti-α-actinin antibody. […] The cells were fixed and analyzed for GFP-HDAC5 localization, α-actinin staining and nuclear DAPI staining *, p<0.05 versus without PE; #, p<0.05 versus with PE alone. I, Schematic model for PKA-dependent regulation of HDAC5 subcellular localization and gene transcription.
Cardiomyocyte protein marker α-actinin was detected by immunofluorescence using antibody against α-actinin and fluorescein-conjugated secondary antibody.
as §2

GST-HDAC5-WT (273-286) = tested on: T1, GST-HDAC5-WT (273-286)
T1 sequence: KVAERRSSPLLRRK

HDAC7 nuclear export = test: PMA-induced YFP-HDAC7 nuclear export in Cos7 cells; type: cell-based
Protocol: Transient transfection of plasmid DNA was performed using lipofectamine 2000 (Invitrogene, Carlsbad, Calif.) and 0.5 μg of the indicated plasmids.

[3] = tested on: ANF, β-MHC, α-SMA expression; test: RT-PCR of cardiac fetal gene expression in NRVMs; type: cell-based, rat; conditions: NRVMs with GFP-HDAC5-WT; PE 24 hours
Protocol: The mRNA was extracted from the cell lysates and then RT-PCR with the primers for ANF, β-MHC, α-SMA, and GADPH (internal control) was performed. *, p<0.05 versus PE+Ad-GFP; #, p<0.05 versus PE+GFP-HDAC5-WT, n=4.
The mRNA was extracted from the cell lysates, and quantitative RT-PCR with the primers for ANF and GADPH (internal control) were performed as described in the Examples. Quantitative data are shown (n=4).
Total RNA was isolated from NRVM using TRIzol (Invitrogen Corp.). Firststrand cDNA was synthesized with the SuperScript Preamplification System (Gibco-BRL). cDNA was amplified by PCR for 30 cycle (Applied Biosystem) as described previously (4, 5). Rat GAPDH served as an internal control. The following oligonucleotide primers were used in this study: rat ANF, sense 5′-[…]-3′ (SEQ ID NO:11) and antisense 5′-[…]-3′(SEQ ID NO:12) rat α-SMA, sense 5′-[…]-3′ (SEQ ID NO:13) and antisense 5′-[…]-3′ (SEQ ID NO:14); rat β-MHC (myosin heavy chain), sense 5′-[…]-3′ (SEQ ID NO:15) and antisense 5′-[…]-3′ (SEQ ID NO:16); rat GAPDH, sense 5′-[…]-3′ (SEQ ID NO:17) and antisense 5′-[…]-3′ (SEQ ID NO:18). Experiments were repeated three times.

[4] = NRVMs with GFP-HDAC5-WT, PE 24 hours

Chain of Myc-HDAC5 AA 1-360 (chain, as listed by the source): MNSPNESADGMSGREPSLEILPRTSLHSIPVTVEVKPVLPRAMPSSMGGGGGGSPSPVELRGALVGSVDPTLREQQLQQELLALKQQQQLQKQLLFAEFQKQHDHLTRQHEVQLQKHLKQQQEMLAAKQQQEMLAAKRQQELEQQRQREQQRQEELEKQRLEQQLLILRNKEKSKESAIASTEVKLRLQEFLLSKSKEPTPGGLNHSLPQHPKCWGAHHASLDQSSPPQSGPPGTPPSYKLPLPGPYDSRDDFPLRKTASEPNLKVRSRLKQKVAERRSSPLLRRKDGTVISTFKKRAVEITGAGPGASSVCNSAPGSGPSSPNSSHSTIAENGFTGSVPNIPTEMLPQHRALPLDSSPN

Compound: CC(C)NCC(O)c1ccc(O)c(O)c1 (stereo not shown) [isoproterenol]
- PMA-induced HDAC5 nuclear export (HDAC5 nuclear export [1]): inhibited HDAC5 nuclear export
- PE-stimulated HDAC5 nuclear export (HDAC5 nuclear export [2]; NRVMs, adenoviral GFP-HDAC5, 30 min pretreatment, PE 10 μM 3 hours): markedly inhibited PE-stimulated HDAC5 nuclear export

Compound: CC(C)Cn1c(=O)n(C)c(=O)c2[nH]cnc21 [IBMX, 3-isobutyl-1-methylxanthine]
- PMA-induced HDAC5 nuclear export (HDAC5 nuclear export [1]): inhibited HDAC5 nuclear export

Compound: COc1ccc(C2CNC(=O)C2)cc1OC1CCCC1 (stereo not shown) [rolipram]
- PMA-induced HDAC5 nuclear export (HDAC5 nuclear export [1]): inhibited HDAC5 nuclear export
- PE/Angiotensin II-induced cardiomyocyte hypertrophy (NRVMs; NRVMs, forskolin 10 μM, cAMP 500 μM, Rolipram 10 μM 30 min, PE or Angiotensin II 24 hours): inhibit PE/Angiotensin II-induced cardiomyocyte hypertrophy

Compound: purified catalytic subunit of protein kinase A (PKA-CA, Calbiochem)
- in vitro kinase assay, 32P autoradiography (Myc-HDAC5 AA 1-360): the similar phosphorylation by PKA-CA in an in vitro kinase assay (FIG. 14) was also detected
- in vitro kinase assay, 32P autoradiography (GST-HDAC5-WT (273-286)): recombinant PKA-CA phosphorylated the GST-tagged peptide of HDAC5-WT

Compound: PKA Inhibitor 14-22 Amide (SGRTGRRNA-NH2; UniProt P61925 14-22, looked up, fragment) [PKI]
- effect on the inhibition of HDAC5 nuclear export by forskolin and cAMP (HDAC5 nuclear export [1]; GFP-HDAC5, PKI pretreatment, then forskolin or cAMP, then PMA 3 hours): abolished the inhibition of forskolin and cAMP on HDAC5 nuclear export
- effect on the inhibitory effects of cAMP on PE-induced HDAC5 nuclear export (HDAC5 nuclear export [2]; NRVMs, GFP-HDAC5, PKA inhibition, then cAMP, PE 3 hours): abolished the inhibitory effects of cAMP on PE-induced HDAC5 nuclear export

Compound: CCCCCC[C@@H]([C@@H](C)O)n1cnc2c(N)ncnc21 (racemic) [EHNA, erythro-9-(2-hydroxy-3-nonyl)adenine]
- PMA-induced HDAC5 nuclear export (HDAC5 nuclear export [1]): inhibited HDAC5 nuclear export

Compound: C=C[C@@]1(C)CC(=O)[C@]2(O)[C@@]3(C)[C@@H](O)CCC(C)(C)[C@@H]3[C@H](O)[C@H](OC(C)=O)[C@@]2(C)O1 [forskolin]
- PMA-induced nuclear export of YFP-HDAC7 (WT) (HDAC7 nuclear export): no inhibitory effect

Compound: CN(C(=O)CCCOc1ccc2[nH]c(=O)ccc2c1)C1CCCCC1 [cilostamide]
- PMA-induced HDAC5 nuclear export (HDAC5 nuclear export [1]): did not block HDAC5 nuclear export

Compound: CCCC(=O)Nc1nc2c(ncn2[C@@H]2O[C@@H]3COP(=O)(O)O[C@H]3[C@H]2OC(=O)CCC)c(=O)[nH]1 [cGMP, DibutyrylcGMP]
- PMA-induced HDAC5 nuclear export (HDAC5 nuclear export [1]): did not block HDAC5 nuclear export

Compound: CNC[C@H](O)c1cccc(O)c1 [PE, R-(−)-Phenylephrine]
- cell size (stimulus alone) (NRVMs; [4]): increased cell size
- HDAC5 localization (stimulus alone) (HDAC5 nuclear export [2]; [4]): HDAC5 nuclear export
- expression of ANF, β-MHC and α-SMA (stimulus alone) [3]: significantly increased expression of ANF, β-MHC and α-SMA

Source: patent publication US20130156753A1 (UNIVERSITY OF ROCHESTER, priority 2010, published 2013)
